The source of these data is patent US10376488B2, “Use of flavonoids in manufacturing compositions for wound healing” (ONENESS BIOTECH CO., Ltd, priority 2014, dated 2019).

Structures are written as SMILES. Marks after values point to notes of the source that are not given here.

The test relates to diabetic wound. Kind of test: Diabetic wound healing test in STZ-induced hyperglycemic rats. Type of test: in vivo. Details: CT50: wound half-closure time: unit not given beside the values. The conditions noted are these: 0.5% ointment applied to wounds, mean±SEM, n = 6. As to the method:
After rats' body weight reach 300 g, the induction of hyperglycemia was carried out with streptozotocin (STZ) (65 mg/kg, ip administration). […] Hyperglycemic animals with a body weight less than 300 g were excluded, and random grouping was performed. Animals were anesthetized with pentobarbital and then their backs were shaved and disinfected. Three pieces of animal skin (full thickness) were harvested from the back of the animals at points 4, 6 and 8 cm from the midpoint of the two scapula with an 1- cm-diameter drilling round knife.
Wounds of each animal were applied with testing agents. New skins were harvested for examination after the end of experiment.
Analyzing the areas of the three wounds on the back of each rat by image pro with the area on day zero as the original wound area. The original wound area is subtracted by the wound area at each time point and then divided by the original wound area to serve as the percentage of wound healing. The average value of the three percentages of wound healing of each rat is considered as the respective would healing extent of each rat. The number of rats was 6 for each group of each test. Data is expressed as mean±SEM. P value is calculated for the test results by t-test against control group, where P<0.05 indicates significant differences, denoted *.
A 0.5% cirsimaritin composition was prepared in an ointment form, and was applied to the rats as treated above. The comparison between the percentages of wound healing at 9, 11, 13, and 15 days after administration, and the untreated control group is shown below. There were significant differences for each group.

Turning to `COc1cc2oc(-c3ccc(O)cc3)cc(=O)c2c(O)c1OC` [cirsimaritin], the “CT50: wound half-closure time” value is given as 10.7 ± 0.4*. In addition, where the note is “9 days after administration”, the “percentage of wound healing” value is given as 37.2 ± 3.9* %. For the same compound, the “percentage of wound healing” value (11 days after administration) is 51.5 ± 3.1* %. For the same compound, under “13 days after administration”, the “percentage of wound healing” value is recorded as 70.6 ± 3.5* %. In addition, the “percentage of wound healing” value (15 days after administration) is 83.3 ± 3.2* %.
